Results reported in paper PMC7760004, “Hydrocarbon-Stapled Peptide Based-Nanoparticles for siRNA Delivery” (Nanomaterials, 2020).
Peptide text beside a SMILES is read from it. * marks the point of attachment. FITC = O=C1OC2(c3ccc(O)cc3Oc3cc(O)ccc32)c2ccc(NC(=S)*)cc21; Ahx = NCCCCCC(=O)O

Tests used:
[1] = Circular dichroism, determination of helical content; format: physicochemical; conditions: water/TFE (95/5)
Protocol: Circular dichroism experiments were carried out using a Jasco J815 spectropolarimeter. Spectra (Jasco, Easton, MD, USA) were typically recorded with 100 μM of peptides dissolved in a water/TFE mixture (95/5), pH 7, using a 1 mm pathlength CD cuvette at 20 °C, over a wavelength range of 190–260 nm. The peptide concentrations were normalized measuring the OD at 490 nm considering a molar coefficient extinction (ε490) for the FITC of 76,900 cm^−1 M^−1. Continuous scanning mode was used, with a response of 1.0 s with 0.1 nm steps and a bandwidth of 2 nm. The signal to noise ratio was improved by acquiring each spectrum over an average of two scans. Baseline was corrected by subtracting the background from the sample spectrum. Alpha helical content was determined using the following equation: % Helix = ([θ])obs × 100)/(−39,500 × (1 − 2.57/n), where ([θ])obs is the mean residue ellipticity at 222 nm and n the number of peptide bonds.

MDA-MB-231 cells = test: Cellular uptake of FITC-stapled peptides (plate-reader fluorescence); conditions: MDA-MB-231, 5 µM FITC-peptide, 4 h
Protocol: MDA-MB-231 cells were seeded in black 96-well plate in 200 μL of their corresponding medium. After 24 h of cell growth, cells were treated with 5 µM concentration of FITC-stapled peptides for 4 h. Total fluorescence (TF) was measured using CLARIOstar® High Performance Monochromator Multimode Microplate Reader (BMG Labtech, Ortenberg, Germany) at excitation/emission of 483-14/530-30 nm. Cells were washed three times with PBS and remaining fluorescence (RF) was measured using the same conditions. The percentage of uptake values were presented as relative mean fluorescence and normalized with respect to Penetratin used as a standard control and set at 100%.

α Helix (%) ([1]; CD, 100 μM peptide, pH 7, 20 °C, from mean residue ellipticity at 222 nm): 5%
CD profile (folding) ([1]; far-UV CD, 20 °C): remained partially unfolded
ability to enter cells (uptake, in words) (MDA-MB-231 cells): almost not able to enter cells
Structure (SMILES): CC[C@H](C)[C@H](NC(=O)[C@H](C)NC(=O)[C@H](CCCNC(=N)N)NC(=O)[C@H](CCCNC(=N)N)NC(=O)CCCCCNC(=S)Nc1ccc2c(c1)C(=O)OC21c2ccc(O)cc2Oc2cc(O)ccc21)C(=O)N[C@H](C(=O)N[C@H](C(=O)N[C@@H](C)C(=O)N[C@@H](CCCNC(=N)N)C(=O)N[C@@H](CCCNC(=N)N)C(=O)N[C@@H](CS)C(N)=O)[C@@H](C)CC)[C@@H](C)CC [JMV6579] ({FITC-Ahx}-RRAIIIARRC-NH2)
